Article PMC8635029 (Frontiers in Pharmacology, 2021)
Where a name gives a salt, the structure may show the parent alone.

Columns and labels:
[1] = test system: mice; assay: Locomotor activity test (sedation)
[2] = test system: ICR mice; assay: Measurement of respiration (whole body plethysmography); type: in vivo
Description: A whole body plethysmography (DSI, US) was used to measure respiration in freely moving ICR mice (half male and half female) as described previously ([Manglik et al., 2016]; [Hill et al., 2018a]; [Hill et al., 2018b]) with some modifications. The respiratory frequency was recorded and then averaged for over 5-min period. The baseline values were recorded for 10 min before dosing. The mice were then removed from the chambers and given drugs, and respiration was then measured for 45 min.

[3] = test system: SD rats; assay: Chronic constriction injury (CCI) model (mechanical allodynia, von Frey); type: in vivo; details: 10 mg/kg
Description: The CCI surgery was performed as described previously with slight modifications ([Bennett and Xie, 1988]). Male SD rats were used in the CCI model. After isoflurane inhalation anesthesia, the femoral skin of the left hindlimb was incised and the sciatic nerve was exposed by blunt dissection of the biceps femoris muscle with a pair of forceps ([Chen et al., 2018]). A 2 mm-long polyethylene cuff was successively implanted around the nerve and the incision was then closed with skin stapler ([Bailey and Ribeiro-da-Silva, 2006]; [Balasubramanyan et al., 2006]). Animals were returned to their cages after recovering from anesthesia. Seventeen days after the surgery, the responses to mechanical stimulation of the hindpaws were measured before the compounds were administered. The rats were then divided into different groups according to the pre-administration values. After the animals were given vehicle or test compounds, the mechanical pain thresholds were taken at multiple time points.
(§1) The rats were placed individually in Plexiglas chambers on a metallic mesh floor and allowed to acclimatize for 30–60 min ([Tsuda et al., 2011]). Mechanical allodynia was determined by probing the plantar surface of the hindpaw from below the mesh floor with a series of calibrated von Frey filaments (Stoelting) in log increments of force ([Lai et al., 2006]). […]

[4] = test system: C57BL/6J mice; assay: Hot-plate test; type: in vivo; details: 10 mg/kg
Description: The hot-plate test was performed according to previous reports ([DeWire et al., 2013]; [Hill et al., 2018a]; [Wang et al., 2018]). Female C57BL/6J mice were individually placed on a hot plate at 56°C and the latency to licking or jumping was then recorded. A cut-off time of 30 s was imposed in order to prevent tissue damage. Before drug administration, the latency of each mouse was measured and defined as the pre-drug value. The animals with a pre-drug value of greater than 20 s were excluded.

[5] = test system: SD rats; assay: Hindpaw incision model (mechanical allodynia, von Frey); type: in vivo; details: 10 mg/kg
Description: The surgery was conducted as reported previously ([Brennan et al., 1996]; [Whiteside et al., 2004]; [Biddlestone et al., 2007]). Male SD rats were anesthetized with isoflurane inhalation (3–5%) and the plantar surface of the left hindpaw was sterilized using iodophor solution. A 1-cm longitudinal incision was made on the plantar surface with no. Eleven scalpel blade, starting at 0.5 cm from the heel and extending toward the toes. The deep fascia was cut to expose the flexor digitorum brevis muscle. The muscle was elevated with curved forceps and incised longitudinally with the tip of a scalpel blade without disturbing the origin and insertion. […] The responses to mechanical stimulation of the hindpaws were recorded at 2 h post-surgery and the mechanical pain thresholds were defined as pre-dose values. After dividing into different groups according to the pre-dose values, the animals were administered vehicle (normal saline) or test compounds and the mechanical pain thresholds were measured at 15 min and 24 h post-dose.
as §1

[6] = test system: ICR mice; assay: Acetic acid-induced writhing test; type: in vivo; details: 10 mg/kg s.c., 24 h post-dosing
Description: ICR mice (half male and half female) were used in this assay. […] A writhe was defined as a wave of contraction of the abdominal musculature followed by extension of the hind limbs ([Wang et al., 2018]). The percentage inhibition of writhes was calculated by the following formula: % antinociception = (Nv−Nt)/Nv × 100, where Nv is the number of writhes in vehicle group and Nt is the number of writhes in treatment groups.

[7] = test system: ICR mice; assay: Compound 48/80-induced scratching test; type: in vivo; details: 0.02 mg/kg
Description: After acclimatization for 30–60 min in Plexiglas chambers, the male ICR mice were given vehicle or test compounds. Compound 48/80 (50 μg, 0.1 ml) was subcutaneously injected into the back of the neck at 15 min after drug administration ([Salaga et al., 2015]). The mice were immediately placed back into the chambers and the scratching behaviors were recorded for 30 min ([Kobayashi et al., 2003]; [Inan et al., 2009]; [Hachisuka et al., 2010]). One bout of scratching was defined as the mouse lifting its hindpaw towards the injection site to scratch until it either licked or bite the hindpaw or placed it back down on the floor ([Nojima and Carstens, 2003]). The percentage inhibition of scratching was calculated by the following formula: % antipruritis = (Bv−Bt)/Bv × 100, where Bv is the bouts of scratching in vehicle group and Bt is the bouts of scratching in treatment groups.

CC(C)C[C@@H](NC(=O)[C@@H](Cc1ccccc1)NC(=O)[C@H](N)Cc1ccccc1)C(=O)N[C@H](CCCCN)C(=O)N1CCC(N)(C(=O)O)CC1 [CR845]
effect on locomotor activity / total distance traveled ([1]; 0.4 mg/kg, 15 min post-dosing): obvious decrease | effect on respiratory rate ([2]; 2 mg/kg): significant decrease | time post-administration at which respiratory rate was significantly decreased ([2]; 2 mg/kg): 25 min | time post-drug at which effects on respiratory rate reached a peak ([2]; 2 mg/kg): 45 min

CN1CC[C@]23c4c5ccc(O)c4O[C@H]2[C@@H](O)C=C[C@H]3[C@H]1C5 [morphine, morphine sulfate]
effect on CCI-induced mechanical allodynia ([3]; 15 min after dosing): completely inhibited | effect on pain behaviors ([3]; 24 h post-dosing): no any effect | effect on distance traveled ([1]; 10 mg/kg): reduced remarkedly | central antinociceptive effect in hot-plate test [4]: almost complete efficacy | effect on hindpaw incision-induced mechanical allodynia ([5]; 15 min after dosing): completely inhibited | effect on pain behaviors ([5]; 24 h post-dosing): no any effect | effect on respiratory rate ([2]; 10 mg/kg): significantly reduced | efficacy in writhing test [6]: vanished

CN(C(=O)/C=C/c1ccoc1)[C@@H]1CC[C@@]2(O)[C@H]3Cc4ccc(O)c5c4[C@@]2(CCN3CC2CC2)[C@H]1O5 [nalfurafine, nalfurafine hydrochloride]
inhibitory rate on scratching responses [7]: 94.30%
